As usually defined, the IC50 is the concentration needed to halve the response being measured. A lower IC50 goes with inhibition by little substance.

A short description of one data set: Dissociation constant, pKa of the compound in DMSO. In kind it is physicochemical.
Details: not given
For `CS(N)(=O)=O` [METHANESULFONAMIDE], the pKa is 17.5.

The same data set, now with this note: DMSO; read-out: pKa.
Consider `NS(=O)(=O)C(F)(F)F` [TRIFLUOROMETHANESULFONAMIDE], for which the pKa amounted to 9.7.

The next data set can be described thus: nhibition of gamma secretase-mediated Abeta40 production by cell based assay.
Details: not given
`O=S(=O)(N[C@@H]1CC[C@@]2(S(=O)(=O)c3ccc(C(F)(F)F)cc3)c3c(F)ccc(F)c3OC[C@@]2(O)C1)C(F)(F)F` came in with an IC50 of 80 nM. Same read-out and setting: next, `O=S(=O)(N[C@@H]1CC[C@@]2(S(=O)(=O)c3ccc(Cl)cc3)c3c(F)ccc(F)c3OC[C@@]2(O)C1)C(F)(F)F`: 11 nM. The same measure, in the same setting: to `O=S(=O)(N[C@@H]1CC[C@@]2(S(=O)(=O)c3ccc(Cl)cc3)c3c(F)ccc(F)c3OC[C@@]2(O)C1)C1CC1` belongs 3 nM.

Another data set is described as follows: nhibition of gamma secretase-mediated Abeta42 production by cell based assay.
Details: not given
In turn, `O=S(=O)(N[C@@H]1CC[C@@]2(S(=O)(=O)c3ccc(C(F)(F)F)cc3)c3c(F)ccc(F)c3OC[C@@]2(O)C1)C(F)(F)F` yielded an IC50 of 51 nM.

In the case of `O=S(=O)(N[C@@H]1CC[C@@]2(S(=O)(=O)c3ccc(Cl)cc3)c3c(F)ccc(F)c3OC[C@@]2(O)C1)C(F)(F)F`, the IC50 was 33 nM.

In turn, `O=S(=O)(N[C@@H]1CC[C@@]2(S(=O)(=O)c3ccc(Cl)cc3)c3c(F)ccc(F)c3OC[C@@]2(O)C1)C1CC1` showed an IC50 of 9 nM.

The nature of another data set: Inhibition of gamma secretase-mediated Abeta40 production.
Details: not given
Consider `O=S(=O)(N[C@@H]1CC[C@@]2(S(=O)(=O)c3ccc(Cl)cc3)c3c(F)ccc(F)c3OC[C@@]2(O)C1)C(F)F`, for which the IC50 was 68 nM. That is a double-digit nanomolar value. `CC(C)S(=O)(=O)CCO[C@@]12COc3c(F)ccc(F)c3[C@]1(S(=O)(=O)c1ccc(Cl)cc1)CCC(=O)C2` yielded an IC50 of 130 nM. On the same count and under the same terms, next, `O=C1CC[C@@]2(S(=O)(=O)c3ccc(Cl)cc3)c3c(F)ccc(F)c3OC[C@@]2(O)C1`: 21 nM. Still for that read-out and setting: next, `O=S(=O)(N[C@@H]1CC[C@@]2(S(=O)(=O)c3ccc(Cl)cc3)c3c(F)ccc(F)c3OC[C@@]2(O)C1)C1CCC1`: 212 nM. On the same count and under the same terms, to `O=S(=O)(N[C@@H]1CC[C@@]2(S(=O)(=O)c3ccc(C(F)(F)F)cc3)c3c(F)ccc(F)c3OC[C@@]2(O)C1)C(F)(F)F` belongs 23 nM; to `O=S(=O)(CF)N[C@@H]1CC[C@@]2(S(=O)(=O)c3ccc(Cl)cc3)c3c(F)ccc(F)c3OC[C@@]2(O)C1`, 164 nM. In the case of `CCS(=O)(=O)CCO[C@@]12COc3c(F)ccc(F)c3[C@]1(S(=O)(=O)c1ccc(Cl)cc1)CC[C@@H](O)C2`, the IC50 is 87 nM. The same measure, in the same setting: next, `O=S(=O)(c1ccc(Cl)cc1)[C@@]12CCCC[C@@H]1COc1c(F)ccc(F)c12`: 22 nM; `CNS(=O)(=O)CCO[C@]12CCCC[C@@]1(S(=O)(=O)c1ccc(Cl)cc1)c1c(F)ccc(F)c1OC2`: 37 nM; `CS(=O)(=O)CCO[C@]12CCCC[C@@]1(S(=O)(=O)c1ccc(Cl)cc1)c1c(F)ccc(F)c1OC2`: 9 nM. On the same count and under the same terms, to `CC(C)S(=O)(=O)CCO[C@@]12COc3c(F)ccc(F)c3[C@]1(S(=O)(=O)c1ccc(Cl)cc1)CCC1(C2)OCCO1` belongs 940 nM. Same read-out and setting: next, `CC(C)S(=O)(=O)CCO[C@]12CCCC[C@@]1(S(=O)(=O)c1ccc(Cl)cc1)c1c(F)ccc(F)c1OC2`: 8 nM; `O=S(=O)(N[C@@H]1CC[C@@]2(S(=O)(=O)c3ccc(Cl)cc3)c3c(F)ccc(F)c3OC[C@@]2(O)C1)C(F)(F)F`: 21 nM; `CCS(=O)(=O)CCO[C@]12CCCC[C@@]1(S(=O)(=O)c1ccc(Cl)cc1)c1c(F)ccc(F)c1OC2`: 15 nM.

`CN(C)CCO[C@]12CCCC[C@@]1(S(=O)(=O)c1ccc(Cl)cc1)c1c(F)ccc(F)c1OC2` showed an IC50 of 31 nM. The same measure, in the same setting: next, `CC(C)SCCO[C@]12CCCC[C@@]1(S(=O)(=O)c1ccc(Cl)cc1)c1c(F)ccc(F)c1OC2`: 180 nM; `O=C1CC[C@@]2(S(=O)(=O)c3ccc(Cl)cc3)c3c(F)ccc(F)c3OC[C@H]2C1`: 13 nM; `CN(C)S(=O)(=O)CCO[C@]12CCCC[C@@]1(S(=O)(=O)c1ccc(Cl)cc1)c1c(F)ccc(F)c1OC2`: 50 nM.

`O=S(=O)(N[C@@H]1CC[C@@]2(S(=O)(=O)c3ccc(C(F)(F)F)cc3)c3c(F)ccc(F)c3OC[C@@]2(O)C1)C1CC1`: the IC50 turned out to be 173 nM. Take `O=C1CC[C@@]2(S(=O)(=O)c3ccc(C(F)(F)F)cc3)c3c(F)ccc(F)c3OC[C@@]2(O)C1`: the 50% inhibitory concentration (IC50) turned out to be 53 nM.

The compound `O=C1CC[C@@]2(S(=O)(=O)c3ccc(Cl)cc3)c3c(F)ccc(F)c3OC[C@]2(O)C1` gave an IC50 of 3000 nM.

Take `CCS(=O)(=O)CCO[C@@]12COc3c(F)ccc(F)c3[C@]1(S(=O)(=O)c1ccc(Cl)cc1)CCC1(C2)OCCO1`: the IC50 is 1300 nM. For `O=S(=O)(c1ccc(C(F)(F)F)cc1)[C@@]12CC[C@@H](O)C[C@]1(O)COc1c(F)ccc(F)c12`, the half-maximal inhibitory concentration (IC50) came out at 136 nM. The same measure, in the same setting: to `CC(C)S(=O)(=O)CCO[C@@]12COc3c(F)ccc(F)c3[C@]1(S(=O)(=O)c1ccc(Cl)cc1)CC[C@@H](O)C2` belongs 52 nM.

For the compound `O=S(=O)(NCCO[C@]12CCCC[C@@]1(S(=O)(=O)c1ccc(Cl)cc1)c1c(F)ccc(F)c1OC2)C(F)(F)F`, the IC50 was 295 nM. As to `CNCCO[C@]12CCCC[C@@]1(S(=O)(=O)c1ccc(Cl)cc1)c1c(F)ccc(F)c1OC2`, the IC50 came out at 40 nM.

`O=S(=O)(c1ccc(Cl)cc1)[C@@]12CC[C@@H](O)C[C@]1(O)COc1c(F)ccc(F)c12` came in with an IC50 of 28 nM. The IC50 values of the last two compounds are within 1.5-fold of each other. Still for that read-out and setting: to `CCSCCO[C@]12CCCC[C@@]1(S(=O)(=O)c1ccc(Cl)cc1)c1c(F)ccc(F)c1OC2` belongs 170 nM; to `CS(=O)(=O)NCCO[C@]12CCCC[C@@]1(S(=O)(=O)c1ccc(Cl)cc1)c1c(F)ccc(F)c1OC2`, 26 nM; to `O=S(=O)(c1ccc(Cl)cc1)[C@@]12CC[C@H](O)C[C@]1(O)COc1c(F)ccc(F)c12`, 363 nM. Still for that read-out and setting: to `NCCO[C@]12CCCC[C@@]1(S(=O)(=O)c1ccc(Cl)cc1)c1c(F)ccc(F)c1OC2` belongs 12 nM; to `O=S(=O)(N[C@@H]1CC[C@@]2(S(=O)(=O)c3ccc(Cl)cc3)c3c(F)ccc(F)c3OC[C@H]2C1)C(F)(F)F`, 27 nM.

On to `O=S(=O)(c1ccc(Cl)cc1)[C@@]12CCC3(C[C@]1(O)COc1c(F)ccc(F)c12)OCCO3`, for which 2900 nM corresponded to half-maximal inhibition (IC50). Compared with the last compound, the IC50 is about 110-fold higher. The compound `CCS(=O)(=O)CCO[C@@]12COc3c(F)ccc(F)c3[C@]1(S(=O)(=O)c1ccc(Cl)cc1)CCC(=O)C2` displayed an IC50 of 160 nM. With `O=S(=O)(NCCO[C@@]12COc3c(F)ccc(F)c3[C@]1(S(=O)(=O)c1ccc(Cl)cc1)CC[C@@H](O)C2)C(F)(F)F`, the IC50 stood at 4100 nM. Same read-out and setting: to `O=S(=O)(N[C@@H]1CC[C@@]2(S(=O)(=O)c3ccc(Cl)cc3)c3c(F)ccc(F)c3OC[C@@]2(O)C1)C1CC1` belongs 29 nM.

For the origin of these results see ChEMBL document CHEMBL1777803, “Synthesis and SAR study of tricyclic sulfones as γ-secretase inhibitors: C-6 and C-8 positions” (Bioorg Med Chem Lett, 2011).
